Values quoted from earlier work in US20090143362A1, “CARBAMAZEPINE FORMULATIONS” (priority 2007, published 2009).

Key:
[1] = in presence of water, after 1 hour, X-ray powder diffraction
[2] = blood level

water solubility: poorly water-soluble
conversion to carbamazepine dihydrate complete [1]: 95%
therapeutic range [2]: 4 to 12 µg/mL
SMILES: NC(=O)N1c2ccccc2C=Cc2ccccc21 [Carbamazepine, 5H-dibenz-[b,f]azepine-5-carboxamide]
